Measurements from patent US6525001B1, “Substituted pyrimidine and pyridine herbicides” (Mid-American Commercialization Corporation, priority 1997, dated 2003).

What was measured:
Type in all cases: in vivo
[1] = test system: arrowleaf sida (Sida rhombifolia); assay: Test C; set-up: key: 0 was no effect; 100 was complete control; settings: PREEMERGENCE
[2] = test system: cocklebur (Xanthium strumarium); assay: Test C; set-up: key: 0 was no effect; 100 was complete control; settings: PREEMERGENCE
corn (Zea mays) = assay: Test C; set-up: key: 0 was no effect; 100 was complete control; settings: PREEMERGENCE
[3] = test system: hairy beggarticks (Bidens pilosa); assay: Test C; set-up: key: 0 was no effect; 100 was complete control; settings: PREEMERGENCE
[4] = test system: ivyleaf morningglory (Ipomoea hederacea); assay: Test C; set-up: key: 0 was no effect; 100 was complete control; settings: PREEMERGENCE
[5] = test system: large crabgrass (Digitaria sanguinalis); assay: Test C; set-up: key: 0 was no effect; 100 was complete control; settings: PREEMERGENCE
[6] = test system: purple nutsedge (Cyperus rotundus); assay: Test C; set-up: key: 0 was no effect; 100 was complete control; settings: PREEMERGENCE
soybean (Glycine max) = assay: Test C; set-up: key: 0 was no effect; 100 was complete control; settings: PREEMERGENCE
[7] = test system: purple nutsedge (Cyperus rotundus); assay: Test E pre-/postemergence/post directed; set-up: key: 0 is no injury; 100 is complete control
How it was run: (§1)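 Greenhouse pot-grown plants; compound in non-phytotoxic solvent with surfactant applied preemergence to soil within one day of planting, postemergence at two to four leaf stage (three to twenty cm), or post-directed to plant base and soil. Visual injury rated 13 to 21 days after application, 0 (none) to 100 (complete control).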

[8] = test system: sandbur (Cenchrus echinatus); assay: Test E pre-/postemergence/post directed; set-up: key: 0 is no injury; 100 is complete control; settings: POSTEMERGENCE, Rate 32 g/ha
How it was run: as §1

[9] = test system: Spanishneedles (Bidens bipinnata); assay: Test E pre-/postemergence/post directed
How it was run: as §1

[10] = test system: alexandergrass (Brachiaria plantaginea); assay: Test E pre-/postemergence/post directed
How it was run: as §1

[11] = test system: bermudagrass (Cynodon dactylon); assay: Test E pre-/postemergence/post directed
How it was run: as §1

[12] = test system: common groundsel (Senecio vulgaris); assay: Test E pre-/postemergence/post directed; settings: POSTEMERGENCE
How it was run: as §1

[13] = test system: common ragweed (Ambrosia elatior); assay: Test E pre-/postemergence/post directed; settings: POSTEMERGENCE
How it was run: as §1

[14] = test system: itchgrass (Rottboellia exaltata); assay: Test E pre-/postemergence/post directed
How it was run: as §1

[15] = test system: johnson grass (Sorghum halepense); assay: Test E pre-/postemergence/post directed
How it was run: as §1

[16] = test system: large crabgrass (Digitaria sanguinalis); assay: Test E pre-/postemergence/post directed
How it was run: as §1

[17] = test system: pitted morningglory (Ipomoea lacunosa); assay: Test E pre-/postemergence/post directed; settings: POSTEMERGENCE
How it was run: as §1

[18] = test system: sandbur (Cenchrus echinatus); assay: Test E pre-/postemergence/post directed
How it was run: as §1

[19] = test system: surinam grass (Brachiaria decumbens); assay: Test E pre-/postemergence/post directed
How it was run: as §1

Structure (SMILES): Cc1cnc(-n2ccc(C(F)(F)F)n2)nc1Cc1cccc(C(F)(F)F)c1 [Example 2, 5-methyl-4-[[3-(trifluoromethyl)phenyl]methyl]-2-[3-(trifluoromethyl)-1H-pyrazol-1-yl]pyrimidine]
- Plant response rating, Arrowleaf sida ([1]; Rate 35 g/ha): 10
- Plant response rating, Arrowleaf sida ([1]; Rate 70 g/ha): 20
- Plant response rating, Arrowleaf sida ([1]; Rate 140 g/ha): 100
- Plant response rating, Cocklebur ([2]; Rate 35 g/ha): 0
- Plant response rating, Cocklebur ([2]; Rate 140 g/ha): 10
- Plant response rating, Corn (corn (Zea mays); Rate 35 g/ha): 0
- Plant response rating, Corn (corn (Zea mays); Rate 70 g/ha): 0
- Plant response rating, Corn (corn (Zea mays); Rate 140 g/ha): 30
- Plant response rating, H. beggarticks ([3]; Rate 35 g/ha): 40
- Plant response rating, H. beggarticks ([3]; Rate 70 g/ha): 40
- Plant response rating, H. beggarticks ([3]; Rate 140 g/ha): 100
- Plant response rating, I. morningglory ([4]; Rate 35 g/ha): 0
- Plant response rating, I. morningglory ([4]; Rate 70 g/ha): 5
- Plant response rating, I. morningglory ([4]; Rate 140 g/ha): 5
- Plant response rating, Large crabgrass ([5]; Rate 35 g/ha): 0
- Plant response rating, Large crabgrass ([5]; Rate 70 g/ha): 5
- Plant response rating, Large crabgrass ([5]; Rate 140 g/ha): 100
- Plant response rating, Purple nutsedge ([6]; Rate 35 g/ha): 0
- Plant response rating, Purple nutsedge ([6]; Rate 70 g/ha): 0
- Plant response rating, Purple nutsedge ([6]; Rate 140 g/ha): 0
- Plant response rating, Soybean (soybean (Glycine max); Rate 35 g/ha): 0
- Plant response rating, Soybean (soybean (Glycine max); Rate 70 g/ha): 0
- Plant response rating, Soybean (soybean (Glycine max); Rate 140 g/ha): 40
- Plant response rating, Purple nutsedge ([7]; POSTEMERGENCE, Rate 32 g/ha): 0
- Plant response rating, Purple nutsedge ([7]; POSTEMERGENCE, Rate 64 g/ha): 0
- Plant response rating, Purple nutsedge ([7]; POSTEMERGENCE, Rate 125 g/ha): 0
- Plant response rating, Purple nutsedge ([7]; POSTEMERGENCE, Rate 250 g/ha): 0
- Plant response rating, Purple nutsedge ([7]; POSTEMERGENCE, Rate 500 g/ha): 0
- Plant response rating, Purple nutsedge ([7]; PREEMERGENCE, Rate 32 g/ha): 0
- Plant response rating, Purple nutsedge ([7]; PREEMERGENCE, Rate 64 g/ha): 0
- Plant response rating, Purple nutsedge ([7]; PREEMERGENCE, Rate 125 g/ha): 0
- Plant response rating, Purple nutsedge ([7]; PREEMERGENCE, Rate 250 g/ha): 0
- Plant response rating, Purple nutsedge ([7]; PREEMERGENCE, Rate 500 g/ha): 0
- Plant response rating, Sandbur [8]: 0
- Plant response rating, Spanishneedles ([9]; POSTEMERGENCE, Rate 32 g/ha): 60
- Plant response rating, Spanishneedles ([9]; POSTEMERGENCE, Rate 64 g/ha): 60
- Plant response rating, Spanishneedles ([9]; POSTEMERGENCE, Rate 125 g/ha): 40
- Plant response rating, Spanishneedles ([9]; POSTEMERGENCE, Rate 500 g/ha): 70
- Plant response rating, Spanishneedles ([9]; PREEMERGENCE, Rate 32 g/ha): 80
- Plant response rating, Alexandergrass ([10]; POSTEMERGENCE, Rate 32 g/ha): 20
- Plant response rating, Alexandergrass ([10]; POSTEMERGENCE, Rate 64 g/ha): 30
- Plant response rating, Alexandergrass ([10]; POSTEMERGENCE, Rate 125 g/ha): 30
- Plant response rating, Alexandergrass ([10]; POSTEMERGENCE, Rate 250 g/ha): 80
- Plant response rating, Alexandergrass ([10]; POSTEMERGENCE, Rate 500 g/ha): 95
- Plant response rating, Alexandergrass ([10]; PREEMERGENCE, Rate 32 g/ha): 50
- Plant response rating, Alexandergrass ([10]; PREEMERGENCE, Rate 64 g/ha): 90
- Plant response rating, Bermudagrass ([11]; POSTEMERGENCE, Rate 32 g/ha): 10
- Plant response rating, Bermudagrass ([11]; POSTEMERGENCE, Rate 64 g/ha): 20
- Plant response rating, Bermudagrass ([11]; POSTEMERGENCE, Rate 125 g/ha): 35
- Plant response rating, Bermudagrass ([11]; POSTEMERGENCE, Rate 250 g/ha): 50
- Plant response rating, Bermudagrass ([11]; POSTEMERGENCE, Rate 500 g/ha): 75
- Plant response rating, Bermudagrass ([11]; PREEMERGENCE, Rate 32 g/ha): 98
- Plant response rating, Com. groundsel ([12]; Rate 64 g/ha): 20
- Plant response rating, Com. groundsel ([12]; Rate 125 g/ha): 20
- Plant response rating, Com. groundsel ([12]; Rate 250 g/ha): 40
- Plant response rating, Com. groundsel ([12]; Rate 500 g/ha): 75
- Plant response rating, Com. ragweed ([13]; Rate 32 g/ha): 50
- Plant response rating, Com. ragweed ([13]; Rate 125 g/ha): 75
- Plant response rating, Com. ragweed ([13]; Rate 250 g/ha): 75
- Plant response rating, Com. ragweed ([13]; Rate 500 g/ha): 75
- Plant response rating, Itchgrass ([14]; POSTEMERGENCE, Rate 32 g/ha): 40
- Plant response rating, Itchgrass ([14]; POSTEMERGENCE, Rate 64 g/ha): 40
- Plant response rating, Itchgrass ([14]; POSTEMERGENCE, Rate 125 g/ha): 75
- Plant response rating, Itchgrass ([14]; POSTEMERGENCE, Rate 250 g/ha): 90
- Plant response rating, Itchgrass ([14]; POSTEMERGENCE, Rate 500 g/ha): 95
- Plant response rating, Itchgrass ([14]; PREEMERGENCE, Rate 32 g/ha): 70
- Plant response rating, Itchgrass ([14]; PREEMERGENCE, Rate 64 g/ha): 75
- Plant response rating, Itchgrass ([14]; PREEMERGENCE, Rate 125 g/ha): 75
- Plant response rating, Itchgrass ([14]; PREEMERGENCE, Rate 250 g/ha): 95
- Plant response rating, Johnsongrass ([15]; POSTEMERGENCE, Rate 32 g/ha): 10
- Plant response rating, Johnsongrass ([15]; POSTEMERGENCE, Rate 64 g/ha): 60
- Plant response rating, Johnsongrass ([15]; POSTEMERGENCE, Rate 125 g/ha): 60
- Plant response rating, Johnsongrass ([15]; POSTEMERGENCE, Rate 250 g/ha): 80
- Plant response rating, Johnsongrass ([15]; POSTEMERGENCE, Rate 500 g/ha): 95
- Plant response rating, Johnsongrass ([15]; PREEMERGENCE, Rate 32 g/ha): 65
- Plant response rating, Johnsongrass ([15]; PREEMERGENCE, Rate 64 g/ha): 98
- Plant response rating, Johnsongrass ([15]; PREEMERGENCE, Rate 125 g/ha): 85
- Plant response rating, Large crabgrass ([16]; POSTEMERGENCE, Rate 32 g/ha): 35
- Plant response rating, Large crabgrass ([16]; POSTEMERGENCE, Rate 64 g/ha): 35
- Plant response rating, Large crabgrass ([16]; POSTEMERGENCE, Rate 125 g/ha): 75
- Plant response rating, Large crabgrass ([16]; POSTEMERGENCE, Rate 250 g/ha): 80
- Plant response rating, Large crabgrass ([16]; POSTEMERGENCE, Rate 500 g/ha): 90
- Plant response rating, Large crabgrass ([16]; PREEMERGENCE, Rate 32 g/ha): 98
- Plant response rating, P. morninglory ([17]; Rate 32 g/ha): 80
- Plant response rating, P. morninglory ([17]; Rate 64 g/ha): 80
- Plant response rating, P. morninglory ([17]; Rate 125 g/ha): 80
- Plant response rating, P. morninglory ([17]; Rate 250 g/ha): 90
- Plant response rating, P. morninglory ([17]; Rate 500 g/ha): 90
- Plant response rating, Sandbur ([18]; POSTEMERGENCE, Rate 64 g/ha): 10
- Plant response rating, Sandbur ([18]; POSTEMERGENCE, Rate 125 g/ha): 10
- Plant response rating, Sandbur ([18]; POSTEMERGENCE, Rate 250 g/ha): 50
- Plant response rating, Sandbur ([18]; POSTEMERGENCE, Rate 500 g/ha): 80
- Plant response rating, Sandbur ([18]; PREEMERGENCE, Rate 32 g/ha): 20
- Plant response rating, Sandbur ([18]; PREEMERGENCE, Rate 64 g/ha): 65
- Plant response rating, Sandbur ([18]; PREEMERGENCE, Rate 125 g/ha): 90
- Plant response rating, Surinam grass ([19]; POSTEMERGENCE, Rate 32 g/ha): 35
- Plant response rating, Surinam grass ([19]; POSTEMERGENCE, Rate 64 g/ha): 50
- Plant response rating, Surinam grass ([19]; POSTEMERGENCE, Rate 125 g/ha): 50
- Plant response rating, Surinam grass ([19]; POSTEMERGENCE, Rate 250 g/ha): 70
- Plant response rating, Surinam grass ([19]; POSTEMERGENCE, Rate 500 g/ha): 80
- Plant response rating, Surinam grass ([19]; PREEMERGENCE, Rate 32 g/ha): 50
- Plant response rating, Surinam grass ([19]; PREEMERGENCE, Rate 64 g/ha): 90
